# Assays:
# [1] = target: T1, Axl (Homo sapiens, UniProt P30530); assay: Biochemical potency, HTRF KinEASE-TK kinase assay; parameters: purchased Invitrogen; conditions: 5 nM AXL, 700 μM ATP
# T1 sequence (P30530 26-894): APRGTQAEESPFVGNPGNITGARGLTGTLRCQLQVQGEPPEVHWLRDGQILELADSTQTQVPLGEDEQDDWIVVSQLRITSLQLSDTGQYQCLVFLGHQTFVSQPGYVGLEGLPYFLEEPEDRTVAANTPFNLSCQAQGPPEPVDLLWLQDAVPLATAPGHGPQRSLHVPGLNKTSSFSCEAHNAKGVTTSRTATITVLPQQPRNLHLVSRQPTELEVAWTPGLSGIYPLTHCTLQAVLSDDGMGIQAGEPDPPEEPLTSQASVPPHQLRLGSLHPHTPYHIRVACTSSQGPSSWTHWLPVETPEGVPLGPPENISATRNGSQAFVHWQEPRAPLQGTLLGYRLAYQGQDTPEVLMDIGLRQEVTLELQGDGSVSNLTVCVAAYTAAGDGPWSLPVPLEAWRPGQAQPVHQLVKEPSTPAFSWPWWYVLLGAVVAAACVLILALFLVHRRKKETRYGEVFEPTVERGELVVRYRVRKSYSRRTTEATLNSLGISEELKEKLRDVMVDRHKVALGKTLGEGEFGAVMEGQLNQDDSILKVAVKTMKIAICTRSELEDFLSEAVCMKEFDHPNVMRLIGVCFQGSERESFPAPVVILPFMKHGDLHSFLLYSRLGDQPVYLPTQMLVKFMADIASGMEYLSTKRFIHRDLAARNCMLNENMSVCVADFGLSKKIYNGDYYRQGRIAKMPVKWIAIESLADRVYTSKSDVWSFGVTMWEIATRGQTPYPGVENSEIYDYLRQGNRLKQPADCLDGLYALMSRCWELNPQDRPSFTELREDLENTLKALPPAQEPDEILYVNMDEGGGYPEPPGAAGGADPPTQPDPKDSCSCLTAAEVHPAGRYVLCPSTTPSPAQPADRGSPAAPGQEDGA
# Summary of the method: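 Steps: compound plus kinase, 1 h RT; add ATP (700 µM final) and biotin-TK substrate (800 nM final); run 2 h RT; stop into streptavidin-XL665/anti-phospho cryptate detection mix, 1 h; read 665/620. AXL at 5 nM, TYRO3 and MER at 1 nM.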
# [2] = target: T2, p-AXL (Homo sapiens, UniProt P30530); assay: Axl phosphorylation inhibition ELISA in HEK293T cells transfected with NanoLuc-tagged AXL; type: cell-based; conditions: 1 h compound incubation, media (OptiMEM)
# T2 construct: expressed in transfected cells; host or cells: HEK293T
# T2 sequence (P30530 26-894): T1 sequence (P30530 26-894)
# Summary of the method: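 HEK293T cells transiently transfected one day earlier with NanoLuc-tagged AXL were exposed to 22-point 2-fold compound dilutions for 1 h at 37° C (70,000 cells/well), then lysed. Lysates captured on anti-phospho-tyrosine coated plates for 2 h; bound p-AXL read by NanoLuc luminescence; IC50 from 4-parameter logistic fit.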
smiles,measurement,setting,value
"Cc1cc(C)c(-c2ccc(-c3n[nH]c4ncc(-c5ccc6c(c5)CC[C@@H](N5C7COCC5C7)CC6)cc34)cc2)cn1 [Example 195, 6-[(7S)-2-{3-[4-(4,6-Dimethylpyridin-3-yl)phenyl]-1H-pyrazolo[3,4-b]pyridin-5-yl}-6,7,8,9-tetrahydro-5H-benzo[7]annulen-7-yl]-3-oxa-6-azabicyclo[3.1.1]heptane]",IC50,[1],< 0.1 µM
same,IC50,[2],0.1 to 1 µM
"c1cc2c(c(-c3ccc(-c4n[nH]c5ncc(-c6ccc7c(c6)CC[C@@H](N6C8COCC6C8)CC7)cc45)cc3)n1)NCCO2 [Example 150, 6-[(7S)-2-[3-(4-{2H,3H,4H-Pyrido[4,3-b][1,4]oxazin-5-yl}phenyl)-1H-pyrazolo[3,4-b]pyridin-5-yl]-6,7,8,9-tetrahydro-5H-benzo[7]annulen-7-yl]-3-oxa-6-azabicyclo[3.1.1]heptane]",IC50,[1],< 0.1 µM
same,IC50,[2],0.1 to 1 µM
"CCn1ncnc1-c1ccc(-c2n[nH]c3ncc(-c4ccc5c(c4)CC[C@@H](N4C6COCC4C6)CC5)cc23)cc1 [Example 138, 6-[(7S)-2-{3-[4-(1-Ethyl-1H-1,2,4-triazol-5-yl)phenyl]-1H-pyrazolo[3,4-b]pyridin-5-yl}-6,7,8,9-tetrahydro-5H-benzo[7]annulen-7-yl]-3-oxa-6-azabicyclo[3.1.1]heptane]",IC50,[1],< 0.1 µM
same,IC50,[2],< 0.1 µM
"Cc1cnc(-c2ccc(-c3n[nH]c4ncc(-c5ccc6c(c5)CC[C@@](C)(N5CCC[C@H]5C)CC6)cc34)nc2)c(C)n1 [Example 60, 3,5-Dimethyl-2-(6-{5-[(7S)-7-methyl-7-[(2R)-2-methylpyrrolidin-1-yl]-6,7,8,9-tetrahydro-5H-benzo[7]annulen-2-yl]-1H-pyrazolo[3,4-b]pyridin-3-yl}pyridin-3-yl)pyrazine]",IC50,[1],< 0.1 µM
same,IC50,[2],0.1 to 1 µM
"Cc1cc(F)cnc1-c1ccc(-c2c[nH]c3ncc(-c4ccc5c(c4)CC[C@@H](N4C6COCC4C6)CC5)cc23)nc1 [Example 35, 6-[(7S)-3-[3-[5-(5-Fluoro-3-methylpyridin-2-yl)pyridin-2-yl]-1H-pyrrolo[2,3-b]pyridin-5-yl]-6,7,8,9-tetrahydro-5H-benzo[7]annulen-7-yl]-3-oxa-6-azabicyclo[3.1.1]heptane]",IC50,[1],< 0.1 µM
same,IC50,[2],< 0.1 µM
"Cc1cnc(-c2ccc(-c3n[nH]c4ncc(-c5ccc6c(c5)CC[C@@H](N5C7COCC5C7)CC6)cc34)cc2)c(C)n1 [Example 190, 6-[(7S)-2-{3-[4-(3,5-Dimethylpyrazin-2-yl)phenyl]-1H-pyrazolo[3,4-b]pyridin-5-yl}-6,7,8,9-tetrahydro-5H-benzo[7]annulen-7-yl]-3-oxa-6-azabicyclo[3.1.1]heptane]",IC50,[1],< 0.1 µM
same,IC50,[2],0.1 to 1 µM
"Cn1c(-c2ccc(-c3c[nH]c4ncc(-c5ccc6c(c5)CC[C@@H](N5C7COCC5C7)CC6)cc34)cc2)cccc1=O [Example 39, 1-Methyl-6-[4-[5-[(7S)-7-(3-oxa-6-azabicyclo[3.1.1]heptan-6-yl)-6,7,8,9-tetrahydro-5H-benzo[7]annulen-3-yl]-1H-pyrrolo[2,3-b]pyridin-3-yl]phenyl]pyridin-2-one]",IC50,[1],< 0.1 µM
same,IC50,[2],< 0.1 µM
"Cc1ccc(C)c(-c2ccc(-c3c[nH]c4ncc(-c5ccc6c(c5)CC[C@@H](N5C7COCC5C7)CC6)cc34)cc2C)n1 [Example 191, 6-[(7S)-2-{3-[4-(3,6-Dimethylpyridin-2-yl)-3-methylphenyl]-1H-pyrrolo[2,3-b]pyridin-5-yl}-6,7,8,9-tetrahydro-5H-benzo[7]annulen-7-yl]-3-oxa-6-azabicyclo[3.1.1]heptane]",IC50,[1],< 0.1 µM
same,IC50,[2],< 0.1 µM
"Cc1ccc(C(F)(F)F)nc1-c1ccc(-c2c[nH]c3ncc(-c4ccc5c(c4)CC[C@@H](N4C6COC[C@H]4C6)CC5)cc23)cc1 [Example 146, (1R)-6-[(7S)-2-(3-{4-[3-Methyl-6-(trifluoromethyl)pyridin-2-yl]phenyl}-1H-pyrrolo[2,3-b]pyridin-5-yl)-6,7,8,9-tetrahydro-5H-benzo[7]annulen-7-yl]-3-oxa-6-azabicyclo[3.1.1]heptane]",IC50,[1],< 0.1 µM
same,IC50,[2],0.1 to 1 µM
"Cc1cnc(C)c(-c2ccc(-c3n[nH]c4ncc(-c5ccc6c(c5)CC[C@@H](N5C7COCC5C7)CC6)cc34)cc2)n1 [Example 65, 6-[(7S)-2-{3-[4-(3,6-Dimethylpyrazin-2-yl)phenyl]-1H-pyrazolo[3,4-b]pyridin-5-yl}-6,7,8,9-tetrahydro-5H-benzo[7]annulen-7-yl]-3-oxa-6-azabicyclo[3.1.1]heptane]",IC50,[1],< 0.1 µM
same,IC50,[2],< 0.1 µM
"Cc1cccnc1-c1ncc(-c2c[nH]c3ncc(-c4ccc5c(c4)CC[C@@H](N4C6COCC4C6)CC5)cc23)cn1 [Example 38, 6-[(7S)-3-[3-[2-(3-Methylpyridin-2-yl)pyrimidin-5-yl]-1H-pyrrolo[2,3-b]pyridin-5-yl]-6,7,8,9-tetrahydro-5H-benzo[7]annulen-7-yl]-3-oxa-6-azabicyclo[3.1.1]heptane]",IC50,[1],< 0.1 µM
same,IC50,[2],< 0.1 µM

# From patent publication US12195482B1 (Arcus Biosciences, Inc., priority 2022, dated 2025)
